Where two headings read alike, the source gives them in different places.

The subject of one test is S. molesta. Nature of the test: Phytotoxic analysis by pipet application on upper or lower leaf surface. The test is classed as in vivo, Salvinia molesta. As to conditions: for pest or weed control at 1 %: Salvinia molesta, topical, 72 h; for activity on upper or lower leaf surface applications: 1% solution, 72 hrs. On the procedure: General Experimental Procedure: 4-Hydroxybenzoic and 3,4-dihydroxybenzoic acids and 14 of their analogs were purchased commercially. Each of 16 compounds were prepared as 5 mL experimental solutions with NANOPURE™ water at 1% concentration. A total of 102 healthy and untreated living type III plants of S. molesta (approximately 10 g in fresh weight each) were cultured and tested in 17 plastic containers (23×23 cm, 2.37 L) with six plants in each container in a greenhouse (30° C. during the day time and 20° C. at night). The first container served as the controls without any treatment, the plants in each of the other 16 containers were treated by one of the 16 testing compounds, respectively. The plants in each container were randomly classified into two groups evenly. For each plant in the first group, 10 μL of 1% experimental solution was applied by pipet on the upper surface of each blade of the six pairs of large floating leaves close to the terminal bud. For each plant in the second group, 10 μL of 1% experimental solution was applied by pipet on the lower surface of each blade of the six pairs of large floating leaves close to the terminal bud. The leaf surfaces were examined for damage and analyzed 72 hrs after the treatments.

For another test, the system named is Salvinia molesta. The experiment in a line: Greenhouse spray test on giant salvinia, living biomass. As to conditions: 10 mL spray on three type III plants per container, day nine. The test is classed as in vivo. As to the method:
General Experimental Procedure: Observations of giant salvinia growth in a greenhouse were performed under 28 different treatment conditions and control conditions with NANOPURE™ water or 0.5% DYNE-AMIC® (methyl esters of C16-C18 fatty acids, polyalkyleneoxide modified polydimethylsiloxane, and alkylphenol ethoxylate 99%, (Helena, Collierville, Tenn., United States)) (v:v).
Materials—4-hydroxybenzoic acid (>95%, HPLC analysis) and 3,4-dihydroxybenzoic acid (>95%) were isolated from S. molesta matter using the method as described in (Li, Wang et al. 2013). Ethylparaben (>99%) was purchased from a commercial source. Each of 4-hydroxybenzoic acid, 3,4-dihydroxybenzoic acid, and ethylparaben were prepared as 50 mL experimental solutions with NANOPURE™ water at the concentration of 0.5, 1.0, 1.5, and 2.0%, respectively. 0.5, 1.0, 1.5, and 2.0% 4-hydroxybenzoic acid, 3,4-dihydroxybenzoic acid, and ethylparaben with 0.5% surfactant DYNE-AMIC® was also prepared as 50 mL experimental solutions with NANOPURE™ water. Mixtures of 4-hydroxybenzoic acid with 3,4-dihydroxybenzoic acid (2:1, w:w) were prepared as 50 mL experimental solutions with NANOPURE™ water at the total concentration of 0.5, 1.0, and 1.5%, respectively. 3,4-dihydroxybenzoic acid was mixed with ethylparaben (2:1, w:w) and prepared as 50 mL experimental solution with NANOPURE™ water at the total concentration of 0.5, 1.0, and 1.5%, respectively.
Bioassay—For each treatment, a total of nine healthy and untreated living plants of S. molesta (type III, the biomass of three plants weighs approximately 10 g) were cultured in tap water in three plastic containers severing as three replications (14×15 cm, 0.68 L) with three plants each in a greenhouse (30° C. during the day time and 20° C. at night). The three plants in each of the three containers per treatment were sprayed with 10 mL NANOPURE™ water, 0.5% DYNE-AMIC®, or the experimental solution. Plant growth and survival status were documented and photographed in each treatment on day nine after the treatment. Pairwise comparisons for all treatments (including Control) in living biomass were made using Tukey test at alpha=0.05, which was done using SAS (SAS 9.4).

The mark [1] stands for this setting: 10 μL of 1% solution per blade, lower surface, read-out: Inhibition (%) Lower leaf Application.
Setting [2] is: 10 μL of 1% solution per blade, upper surface, read-out: Inhibition (%) Upper leaf Application.
Setting [3] is: read-out: Inhibition (%) Lower leaf Application, 10 μL of 1% solution per blade, lower surface.
[4] abbreviates: read-out: Inhibition (%) Upper leaf Application, 10 μL of 1% solution per blade, upper surface.

With `O=C(O)c1ccc(O)c(O)c1O` [2,3,4-Trihydroxybenzoic acid], the pest or weed control at 1 % with S. molesta (setting [1]) turned out to be 11.1%; in the test with S. molesta (setting [2]), 44.5%.
The matching figures for `O=C(O)c1cccc(O)c1O` [2,3-Dihydroxybenzoic acid]: 100% and over 85%.
Turning to `O=C(O)c1c(O)cc(O)cc1O` [2,4,6-Trihydroxybenzoic acid], the “activity on upper or lower leaf surface applications” value in the test on S. molesta is reported as “did not show any activities”. The values for the pest or weed control at 1 % with S. molesta (setting [1]) and in the test with S. molesta (setting [2]) were 11.1% and 0%, respectively.
Turning to `O=C(O)c1ccc(O)cc1O` [2,4-Dihydroxybenzoic acid], the pest or weed control at 1 % with S. molesta (setting [1]) is 72.2%; with S. molesta (setting [2]) it was over 85%.
The matching figures for `O=C(O)c1cc(O)ccc1O` [2,5-Dihydroxybenzoic acid]: 11.1% and 52.8%.
The matching figures for `O=C(O)c1c(O)cccc1O` [2,6-Dihydroxybenzoic acid]: 25% and 44.4%.
The matching figures for `O=C(O)c1ccccc1O` [2-Hydroxybenzoic acid]: 100% and over 85%.
Take `O=C(O)c1cc(O)c(O)c(O)c1` [3,4,5-Trihydroxybenzoic acid]: in the test with S. molesta, the “activity on upper or lower leaf surface applications” value was “did not show any activities”. Also, the pest or weed control at 1 % in the test on S. molesta (setting [1]) and in the test on S. molesta (setting [2]) was 0% throughout.
As to `O=C(O)c1cc(O)cc(O)c1` [3,5-Dihydroxybenzoic acid], in the test on S. molesta, the “activity on upper or lower leaf surface applications” value is “did not show any activities”. Besides, the pest or weed control at 1 % with S. molesta (setting [1]) and in the test with S. molesta (setting [2]) was 0% throughout.
Turning to `O=C(O)c1cccc(O)c1` [3-Hydroxybenzoic acid], the pest or weed control at 1 % with S. molesta (setting [1]) was found to be 66.7%; in the test with S. molesta (setting [2]), 36.1%.
Regarding `O=C(O)c1ccccc1` [Benzoic acid], the pest or weed control at 1 % with S. molesta (setting [3]) was 100%; in the test with S. molesta (setting [4]), over 85%.
For `CCOC(=O)c1ccc(O)cc1` [Ethylparaben, reference compound], the “Living Biomass (mean ± s.d.)” value came out at 18.6 g in the test with Salvinia molesta (total concentration 0.5%), 18.7 g with Salvinia molesta (total concentration 1.0%), 12.9 g in the test with Salvinia molesta (total concentration 1.5%) and 13.5 g in the test with Salvinia molesta (total concentration 2.0%).
As for `O=C(O)c1ccncc1` [Isonicotinic acid], the figures for the pest or weed control at 1 % in the test with S. molesta (setting [1]) and in the test with S. molesta (setting [2]) were 33.3% and 44.5%, respectively.
As to `O=C(O)c1cccnc1` [Nicotinic acid], the “activity on upper or lower leaf surface applications” value in the test on S. molesta is “did not show any activities”. Also, the pest or weed control at 1 % in the test on S. molesta (setting [1]) and with S. molesta (setting [2]) was 0% each time.
Regarding `O=C(O)COc1ccccc1` [Phenoxyacetic acid], the pest or weed control at 1 % with S. molesta (setting [3]) was 16.7%; in the test on S. molesta (setting [4]) it was 77.8%.
